The record followed here is patent US7495027B2, “3-aryl-4-hydroxyfuranone compounds and the human and animal health use thereof” (Wyeth, priority 2003, dated 2009).

In brackets after ≈: the same amount, converted by molar mass. Bounds are passed on as bounds.

Usually IC50 stands for the concentration that inhibits the measured activity by half. In general, MIC refers to the lowest concentration that inhibits growth of the organism. A low value points to inhibition by little substance.

The target in the first experiment is E. coli Enopyruvyl-UPD-N-acetylglucosamine reductase, Mur B (Escherichia coli, UniProt P08373). Nature of the experiment: biochemical. Particulars: (E) E. coli enzyme; read-out: MurB IC50 (converted).
Sequence of E. coli Enopyruvyl-UPD-N-acetylglucosamine reductase, Mur B (P08373 whole entry): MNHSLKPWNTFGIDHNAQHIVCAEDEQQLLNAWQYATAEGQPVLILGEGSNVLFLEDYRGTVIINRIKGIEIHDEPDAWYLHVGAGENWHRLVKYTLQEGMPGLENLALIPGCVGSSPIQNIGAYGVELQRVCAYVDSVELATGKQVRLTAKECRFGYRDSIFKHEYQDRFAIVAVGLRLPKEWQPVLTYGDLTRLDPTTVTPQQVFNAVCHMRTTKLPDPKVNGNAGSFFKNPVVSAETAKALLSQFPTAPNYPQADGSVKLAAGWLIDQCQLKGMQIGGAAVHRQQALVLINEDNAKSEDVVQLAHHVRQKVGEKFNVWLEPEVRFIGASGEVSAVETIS
For `O=C1O/C(=C\c2ccc3ccccc3c2)C(O)=C1c1ccc2ccccc2c1` [Example 52], the IC50 is above 68.6 µM.
As for `O=C1O/C(=C\c2ccc(-c3ccccc3)cc2)C(O)=C1c1ccc(Cl)cc1` [Example 53], the IC50 is 16 µM.
Same read-out and setting: the same measure for `O=C1O/C(=C\c2ccc3ccccc3c2)C(O)=C1c1ccc(Cl)cc1` [Example 54]: 22.9 µM; for `O=C1O/C(=C\c2ccc3ccccc3c2)C(O)=C1c1cccc2ccccc12` [Example 56]: above 68.6 µM; for `O=C1O/C(=C\c2ccc(-c3ccccc3)cc2)C(O)=C1c1cc(Cl)cc(Cl)c1` [Example 67]: 2.44 µM.
Same read-out and setting: the same measure for `O=C1O/C(=C\c2ccc(-c3ccccc3)cc2)C(O)=C1c1cccc(Cl)c1` [Example 69]: 13.3 µM.
On to `O=C1O/C(=C\c2cccnc2)C(O)=C1c1ccc(-c2ccccc2)cc1` [Example 101], for which the IC50 was above 73.2 µM.
As for `O=C1O/C(=C\c2ccc(C(F)(F)F)cc2)C(O)=C1c1ccc(-c2ccccc2)cc1` [R=H, R1=4-(biphenyl), R2=4-CF3—C6H4], the IC50 was 14.7 µM.
In the case of `O=C1O/C(=C\c2ccc(-c3ccc(Cl)cc3)cc2)C(O)=C1c1ccc(Cl)cc1` [R=H, R1=4-Cl—C6H4, R2=4-(4′-Cl-biphenyl)], the IC50 was 7.33 µM.

The next experiment deals with T1, S. aureus Enopyruvyl-UPD-N-acetylglucosamine reductase, Mur B (Staphylococcus aureus, UniProt P61431).
T1 sequence (P61431 1-307): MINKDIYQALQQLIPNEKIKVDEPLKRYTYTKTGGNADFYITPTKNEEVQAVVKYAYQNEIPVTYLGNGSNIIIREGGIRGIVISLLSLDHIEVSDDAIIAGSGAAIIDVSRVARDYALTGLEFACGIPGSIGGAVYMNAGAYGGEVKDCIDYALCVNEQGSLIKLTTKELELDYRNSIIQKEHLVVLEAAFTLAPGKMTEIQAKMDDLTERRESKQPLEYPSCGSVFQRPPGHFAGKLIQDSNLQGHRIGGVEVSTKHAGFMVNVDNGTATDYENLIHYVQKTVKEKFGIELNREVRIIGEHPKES
Nature of the experiment: biochemical. Particulars: (S) S. aureus enzyme.
Turning to `O=C1O/C(=C\c2ccc(N3CCOCC3)c(F)c2)C(O)=C1c1cc(Cl)cc(Cl)c1` [Example 34], the “MurB IC50” value is recorded as 6 (S) μg/mL.
Regarding `COc1ccc(C=C2OC(=O)C(c3cccc(Cl)c3)=C2O)c2ccccc12` [Example 35], the “MurB IC50” value is reported as 6 (S) μg/mL.

The same experiment, now with this note: (S) S. aureus enzyme; read-out: MurB IC50 (converted).
As for `COc1ccc(/C=C2\OC(=O)C(c3cc(Cl)cc(Cl)c3)=C2O)c2ccccc12` [Example 36], the IC50 was 7.26 µM.
On the same count and under the same terms, to `O=C1O/C(=C\c2ccc(N3CCOCC3)c3ccccc23)C(O)=C1c1cccc(Cl)c1` [Example 37] belongs 23 µM; to `O=C1O/C(=C\c2ccc(N3CCOCC3)c3ccccc23)C(O)=C1c1cc(Cl)cc(Cl)c1` [Example 38], 17.1 µM.

For a further experiment, the target named is T2, S. aureus Uridine-diphosphate-N-acetvimuramoyl: L-alanine lipase, MurC (Staphylococcus aureus, UniProt Q2FXJ0).
T2 sequence (Q2FXJ0 1-437): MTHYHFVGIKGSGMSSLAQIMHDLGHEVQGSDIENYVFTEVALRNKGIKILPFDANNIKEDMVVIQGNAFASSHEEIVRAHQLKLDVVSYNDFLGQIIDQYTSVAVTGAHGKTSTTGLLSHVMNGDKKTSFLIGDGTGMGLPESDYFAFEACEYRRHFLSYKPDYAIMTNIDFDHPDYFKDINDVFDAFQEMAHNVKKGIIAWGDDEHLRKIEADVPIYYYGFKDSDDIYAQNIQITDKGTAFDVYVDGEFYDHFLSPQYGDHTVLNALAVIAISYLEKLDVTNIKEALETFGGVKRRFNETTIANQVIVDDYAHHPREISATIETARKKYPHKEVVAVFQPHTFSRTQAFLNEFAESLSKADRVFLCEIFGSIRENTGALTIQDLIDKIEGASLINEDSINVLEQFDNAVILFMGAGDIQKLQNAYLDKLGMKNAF
Briefly: biochemical. As to conditions: (S) S. aureus enzyme. Here is the method:
S. aureus and E. coli Uridine-diphosphate-N-acetvimuramoyl: L-alanine lipase, MurC
Preparation of Enzyme Solution:
A 1 mg/mL stock solution of MurC is prepared in a buffer consisting of 20 mM Tris/HCl (pH 8.5) with 2.5 μM BME. The stock solution is further diluted with the buffer to give a final enzyme concentration of 100 μg/mL for the E. coli stock solution and 70 μg/mL for the S. aureus stock solution.
Preparation of Test Compound Solutions:
All test solutions are prepared in DMSO as 10 mg/mL, then diluted with 50 mM Tris/HCl (pH 8.5) to 100 μg/mL.
Preparation of Stop Solution:
The stop solution is prepared by stirring 1 part 4.2% ammonium molydbate in 4N HCl with 2 parts 0.045% malachite green for 30 min.
In this evaluation, the inhibitory activity of a test compound against MurC, the enzyme which catalyzes the third step of bacterial cell wall bioxynthesis is determined. Experiments are performed by adding 2.5 μl buffer, 2.5 μl 0.5M NH4SO2, 5 μl 2 μM L-Ala, 5 μl enzyme solution and 6.5 μl test compound solution to each well in a 96-well microplate. After a pre-incubation period of 10 mins. at 23° C., 3.75 μl of a 0.75 μM solution of UDP-MurNac is added to each well. Following an incubation period of 10 mins. at 37° C., 210 μl stop solution and 50 μl of a 34% w/v sodium citrate solution are added and color is allowed to develop for 10 mins. at 23° C. (Lanzetta et al., Analytical Biochemistry, 1979, 95) Optical density readings are taken at 660 nm using a Molecular Devices Spectra Max 250 with Soft Max software. Controls are performed using the same procedure and omitting the addition of UDP-MurNac. […]
Using these values the IC50 is determined by linear regression analysis.
As to `O=C1O/C(=C\c2ccc(N3CCOCC3)c(F)c2)C(O)=C1c1cc(Cl)cc(Cl)c1` [Example 34], the “MurC IC50” value is 21 (S) μg/mL.
`COc1ccc(C=C2OC(=O)C(c3cccc(Cl)c3)=C2O)c2ccccc12` [Example 35]: the “MurC IC50” value was 8 (S) μg/mL.

The same experiment, now with this note: (S) S. aureus enzyme; read-out: MurC IC50 (converted).
In the case of `COc1ccc(/C=C2\OC(=O)C(c3cc(Cl)cc(Cl)c3)=C2O)c2ccccc12` [Example 36], the IC50 was 12.1 µM.
With `O=C1O/C(=C\c2ccc(N3CCOCC3)c3ccccc23)C(O)=C1c1cccc(Cl)c1` [Example 37], the IC50 is 23 µM.
On the same count and under the same terms, the same measure for `O=C1O/C(=C\c2ccc(N3CCOCC3)c3ccccc23)C(O)=C1c1cc(Cl)cc(Cl)c1` [Example 38]: 14.9 µM; for `O=C1O/C(=C\c2ccc3ccccc3c2)C(O)=C1c1ccc2ccccc2c1` [Example 52]: above 68.6 µM.
`O=C1O/C(=C\c2ccc(-c3ccccc3)cc2)C(O)=C1c1ccc(Cl)cc1` [Example 53]: the IC50 was 18.7 µM.
With `O=C1O/C(=C\c2ccc3ccccc3c2)C(O)=C1c1ccc(Cl)cc1` [Example 54], the IC50 was 31.5 µM.
With `O=C1O/C(=C\c2ccc3ccccc3c2)C(O)=C1c1cccc2ccccc12` [Example 56], the IC50 is 30.2 µM.
Consider `O=C1O/C(=C\c2ccc(-c3ccccc3)cc2)C(O)=C1c1cc(Cl)cc(Cl)c1` [Example 67], for which the IC50 is 44 µM.
Still for that read-out and setting: the same measure for `O=C1O/C(=C\c2ccc(-c3ccccc3)cc2)C(O)=C1c1cccc(Cl)c1` [Example 69]: 13.3 µM; for `O=C1O/C(=C\C2CCCCC2)C(O)=C1c1ccc(-c2ccccc2)cc1` [Example 100]: 46.2 µM; for `O=C1O/C(=C\c2cccnc2)C(O)=C1c1ccc(-c2ccccc2)cc1` [Example 101]: 67.4 µM.
In the case of `Cc1ccc(/C=C2\OC(=O)C(c3ccc(-c4ccccc4)cc3)=C2O)s1` [Example 104], the IC50 was 52.7 µM.
Regarding `O=C1O/C(=C\c2ccc(C(F)(F)F)cc2)C(O)=C1c1ccc(-c2ccccc2)cc1` [R=H, R1=4-(biphenyl), R2=4-CF3—C6H4], the IC50 is 29.4 µM.

A further experiment has as its system Streptococci. Nature of the experiment: Minimum inhibitory concentration, microdilution broth method, streptococci. As to conditions: Mueller-Hinton broth with 5% horse blood, 18-22 hours at 35° C. The format is cell-based. Put shortly: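 Recent clinical isolates, some resistant to methicillin, penicillin and/or vancomycin, were tested by the broth microdilution method of NCCLS Approved Standard M7-A5 2000. Mueller-Hinton broth served for staphylococci and enterococci, while streptococci received the same broth supplemented with 5% horse blood.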
(In broth dilution the organism is exposed to a series of concentrations in liquid medium.)
For the compound `O=C1O/C(=C\c2ccc(N3CCOCC3)c(F)c2)C(O)=C1c1cc(Cl)cc(Cl)c1` [Example 34], the “MIC S. pneumo GC 1894” value was 4 mg/L (≈ 9.17 µM).
Take `COc1ccc(C=C2OC(=O)C(c3cccc(Cl)c3)=C2O)c2ccccc12` [Example 35]: the “MIC S. pneumo GC 1894” value came to 2 mg/L (≈ 5.28 µM).

The experiment is the same for the next values; noted with them: S. pneumo GC 1894; Mueller-Hinton broth with 5% horse blood, 18-22 hours at 35° C.
On to `COc1ccc(/C=C2\OC(=O)C(c3cc(Cl)cc(Cl)c3)=C2O)c2ccccc12` [Example 36], for which the MIC came to 1 mg/L (≈ 2.42 µM).
On the same count and under the same terms, to `O=C1O/C(=C\c2ccc(N3CCOCC3)c3ccccc23)C(O)=C1c1cccc(Cl)c1` [Example 37] belongs 8 mg/L (≈ 18.4 µM).
`O=C1O/C(=C\c2ccc(N3CCOCC3)c3ccccc23)C(O)=C1c1cc(Cl)cc(Cl)c1` [Example 38] showed an MIC of 1 mg/L (≈ 2.14 µM).
Compound `O=C1O/C(=C\c2ccc3ccccc3c2)C(O)=C1c1ccc2ccccc2c1` [Example 52] returned an MIC of 0.5 mg/L (≈ 1.37 µM).
In turn, `O=C1O/C(=C\c2ccc(-c3ccccc3)cc2)C(O)=C1c1ccc(Cl)cc1` [Example 53] returned a minimal inhibitory concentration (MIC) of 0.5 mg/L (≈ 1.33 µM).
`O=C1O/C(=C\c2ccc3ccccc3c2)C(O)=C1c1ccc(Cl)cc1` [Example 54] yielded an MIC below 0.125 mg/L.
`O=C1O/C(=C\c2ccc3ccccc3c2)C(O)=C1c1cccc2ccccc12` [Example 56] came in with an MIC of 4 mg/L (≈ 11 µM).
With `O=C1O/C(=C\c2ccc(-c3ccccc3)cc2)C(O)=C1c1cc(Cl)cc(Cl)c1` [Example 67], the MIC is below 0.125 mg/L.
Still for that read-out and setting: to `O=C1O/C(=C\c2ccc(-c3ccccc3)cc2)C(O)=C1c1cccc(Cl)c1` [Example 69] belongs 0.25 mg/L (≈ 0.667 µM).
Same read-out and setting: the same measure for `O=C1O/C(=C\C2CCCCC2)C(O)=C1c1ccc(-c2ccccc2)cc1` [Example 100]: 64 mg/L (≈ 185 µM).
Consider `O=C1O/C(=C\c2cccnc2)C(O)=C1c1ccc(-c2ccccc2)cc1` [Example 101], for which the MIC came out at 64 mg/L (≈ 187 µM).
For the compound `Cc1ccc(/C=C2\OC(=O)C(c3ccc(-c4ccccc4)cc3)=C2O)s1` [Example 104], the MIC was 0.5 mg/L (≈ 1.39 µM).
The compound `O=C1O/C(=C\c2ccc(C(F)(F)F)cc2)C(O)=C1c1ccc(-c2ccccc2)cc1` [R=H, R1=4-(biphenyl), R2=4-CF3—C6H4] registered an MIC below 0.125 mg/L.
For `O=C1O/C(=C\c2ccc(-c3ccc(Cl)cc3)cc2)C(O)=C1c1ccc(Cl)cc1` [R=H, R1=4-Cl—C6H4, R2=4-(4′-Cl-biphenyl)], the MIC is below 0.125 mg/L.
